Laboratory results reported in paper PMC4315423 (Journal of Medicinal Chemistry, 2014).
Values after ≈ are worked out from the molar mass of the structure shown.

Columns and labels:
[1] = in vivo pharmacokinetics, plasma and brain, single ip dose in male C57BL/6 mice; design: species or system mouse; conditions: ip 30 mg/kg
[2] = aqueous kinetic solubility; assay type: physicochemical; conditions: PBS aqueous buffer

## CN1C(=O)c2ccccc2[S@+]([O-])c2ccc(C(=O)NCCc3cccs3)cc21 [compound 65, 10-Methyl-11-oxo-N-(2-(thiophen-2-yl)ethyl)-10,11-dihydrodibenzo[b,f][1,4]thiazepine-8-carboxamide 5-(S)-Oxide]
[1]; brain, C57BL/6 mice
  time to reach brain Cmax: ≤ 15 min
[1]; male C57BL/6 mice, at 5 min after dosing, lasted for about 2 h
  behavioural observation after dosing: appeared less active
[2]
  solubility kinetic: 46.5 µg/mL (≈ 113 µM)
